Data published in ChEMBL document CHEMBL5046245, “Identification of Pyruvate Carboxylase as the Cellular Target of Natural Bibenzyls with Potent Anticancer Activity against Hepatocellular Carcinoma via Metabolic Reprogramming” (J Med Chem, 2022).
Calls of active or inactive are those of the source. The rule behind the calls is not given here.

Tests used:
L02 = experiment: Cytotoxicity against human HL7702 cells assessed as inhibition of cell growth measured upto 400 nM measured after 48 hrs by MTT assay; format: toxicity, cell-based; settings: l02, 48 h
HCCLM3 [1] = experiment: Induction of glycolysis in human HCCLM3 cells assessed as decrease in level of L-lactate at 5 nM; format: functional, cell-based
HCCLM3 [2] = experiment: Induction of glycolysis in human HCCLM3 cells assessed as decrease in level of acetyl-CoA at 5 nM; format: functional, cell-based
SK-HEP1 [3] = experiment: Antimigratory activity in human SK-HEP1 cells overexpressing PC assessed as suppression of cell migration at 0.5 nM measured after 48 hrs by wound healing assay; format: functional, cell-based
HepG2 [4] = experiment: Antitumor activity against human HepG2 cells xenografted in NCR-nu/nu mouse assessed reduction in tumor growth at 25 to 50 mg/kg, ip administered alternate days for 21 days and measured 26 days post implantation; format: functional, organism-based; settings: dose 25-50 mg/kg, time 21.0 day
HCCLM3 [5] = experiment: Antimigratory activity in human HCCLM3 cells assessed as inhibition of scratch closure at 0.05 to 1 nM measured after 24 hrs by […] assay; format: functional, cell-based; settings: dose 0.05-1 nM
HCCLM3 [6] = experiment: Induction of glycolysis in human HCCLM3 cells assessed as decrease in level of ATP at 5 nM; format: functional, cell-based
[7] = Systemic toxicity in NCR-nu/nu mouse bearing human HCCLM3 tumor assessed as pathological change in liver at 25 to 50 mg/kg, ip administered alternate days for 21 days and measured 26 days post implantation by H and E staining based analysis; format: organism-based; settings: in vivo, 504 h, dose 25-50 mg/kg, time 21 day
HCCLM3 [8] = experiment: Induction of apoptosis in human HCCLM3 cells assessed as nuclear condensation at 20 nM incubated for 24 hrs by DAPI staining based phase contrast microscopic analysis; format: functional, cell-based
HepG2 [9] = experiment: Cytotoxicity against PC knockout human HepG2 cells assessed as reduction in cell viability at 20 to 100 nM measured after 48 hrs by MTT assay; format: functional, cell-based; settings: dose 20-100 nM
HepG2 [10] = experiment: Induction of apoptosis in human HepG2 cells assessed as nuclear condensation at 100 nM incubated for 24 hrs by DAPI staining based phase contrast microscopic analysis; format: functional, cell-based
HepG2 [11] = experiment: Cytotoxicity against human HepG2 cells assessed as cell viability at 62.5 to 250 nM preincubated for 48 hrs by MTT assay; format: functional, cell-based; settings: dose 62.5-250 nM
HepG2 [12] = experiment: Effect on cell cycle arrest in human HepG2 cells assessed as increase in accumulation of cells in G2/M phase at 20 to 80 nM incubated for 24 hrs by propidium iodide staining based flow cytometry analysis; format: functional; settings: dose 20-80 nM, TDE = time-dependent effect
HCCLM3 [13] = experiment: Effect on ATP production in PC knockout human HCCLM3 cells assessed as reduction in intracellular ATP level at 10 nM by CellTiter-Lumni plus cell viability assay; format: functional, cell-based
HepG2 [14] = experiment: Inhibition of pyruvate carboxylase in human HepG2 cells measured at 10 nM upto 24 hrs; format: cell-based; settings: time hrs <=24
[15] = Systemic toxicity in NCR-nu/nu mouse bearing human HCCLM3 tumor assessed as pathological change in spleen at 25 to 50 mg/kg, ip administered alternate days for 21 days and measured 26 days post implantation by H and E staining based analysis; format: organism-based; settings: in vivo, 504 h, dose 25-50 mg/kg, time 21 day
HCCLM3 [16] = experiment: Inhibition of epithelial-mesenchymal transition in human HCCLM3 cells assessed as upregulation of E-cadherin expression at 0.05 to 1 nM incubated for 24 hrs by Western blot analysis; format: functional, cell-based; settings: dose 0.05-1 nM
HCCLM3 [17] = experiment: Induction of glycolysis in PC knockout human HCCLM3 cells assessed as intracellular glucose consumption at 10 nM; format: functional, cell-based
HCCLM3 [18] = experiment: Antimigratory activity against PC knockout human HCCLM3 cells assessed as suppression of cell migration at 0.5 nM measured after 48 hrs by wound healing assay; format: functional, cell-based
HepG2 [19] = experiment: Antitumor activity against human HepG2 cells xenografted in NCR-nu/nu mouse assessed wet tumor weight at 50 mg/kg, ip administered alternate days for 21 days and measured 26 days post implantation (Rvb= 0.92 +/- 0.13 g); format: functional; settings: time 21 day
HCCLM3 [20] = experiment: Reversal of H2O2-induced cell death in human HCCLM3 cells at 10 nM pretreated for 24 hrs followed by H2O2 addition and further incubated for 24 hrs in presence of OAA by MTT assay; format: functional, cell-based; settings: time 48.0 hrs
[21] = Antitumor activity against human HCCLM3 cells xenografted in NCR-nu/nu mouse assessed wet tumor weight at 50 mg/kg, ip administered alternate days for 21 days and measured 26 days post implantation (Rvb= 1.835 +/- 0.15 g); format: functional; settings: time 21 day
HCCLM3 [22] = experiment: Induction of apoptosis in human HCCLM3 cells assessed as cell rounding at 20 nM incubated for 24 hrs by DAPI staining based phase contrast microscopic analysis; format: functional
HepG2 [23] = experiment: Antiproliferative activity against human HepG2 cells assessed as inhibition of cell growth measured after 48 hrs by MTT assay; format: functional, cell-based; settings: HepG2, 48 h
HCCLM3 [24] = experiment: Induction of glycolysis in PC knockout human HCCLM3 cells assessed as intracellular lactate concentration at 10 nM CheKine lactate assay; format: functional, cell-based
HepG2 [25] = experiment: Induction of apoptosis in human HepG2 cells assessed as cell rounding at 100 nM incubated for 24 hrs by DAPI staining based phase contrast microscopic analysis; format: functional
HepG2 [26] = experiment: Competitive inhibition of recombinant pyruvate carboxylase in human HepG2 cell lysate in presence of Erianin at 20 uM for 120 mins followed by irradiation of 365 nm UV light for 15 min by Native -PAGE analysis; format: subcellular
[27] = Toxicity in NCR-nu/nu mouse bearing human HCCLM3 tumor assessed as effect on body weight at 25 to 50 mg/kg, ip administered alternate days for 21 days and measured every three days; format: organism-based; settings: in vivo, 504 h, dose 25-50 mg/kg, time 21 day
[28] = Antitumor activity against human HCCLM3 cells xenografted in NCR-nu/nu mouse assessed wet tumor weight at 25 mg/kg, ip administered alternate days for 21 days and measured 26 days post implantation (Rvb= 1.835 +/- 0.15 g); format: functional; settings: time 21 day
HepG2 [29] = experiment: Effect on cell cycle arrest in human HepG2 cells assessed as decrease in accumulation of cells at G0/G1 phase at 20 nM measured upto 24 hrs hrs by propidium iodide staining based flow cytometry analysis; format: functional; settings: time hrs <=24, TDE = time-dependent effect
Homo sapiens = species: Homo sapiens; experiment: Binding affinity to recombinant pyruvate carboxylase (unknown origin) assessed as thermal stability at upto 1000 nM by cellular thermal […] assay; settings: dose nM <=1000
SK-HEP1 [30] = experiment: Inhibition of mesenchymal transition in human SK-HEP1 cells overexpressing PC assessed as effect on fibronectin expression; format: functional, cell-based
HCCLM3 [31] = experiment: Induction of apoptosis in human HCCLM3 cells transfected with PC-flag plasmid assessed as reduction in cell viability at 20 to 100 nM incubated for 24 hrs by MTT assay; format: functional, cell-based; settings: dose 20-100 nM
[32] = Inhibition of pyruvate carboxylase in human HepG2 cell lysate measured upto 24 hrs by PC assay kit; format: subcellular
HepG2 [33] = experiment: Induction of caspase-mediated apoptosis in human HepG2 cells assessed as reduction in cell viability at 100 to 400 nM incubated for 48 hrs in presence of Z-VAD-FMK by MTT assay; format: functional, cell-based; settings: dose 100-400 nM
SK-HEP1 [34] = experiment: Inhibition of mesenchymal transition in human SK-HEP1 cells overexpressing PC assessed as effect on vimentin expression; format: functional, cell-based

COc1ccc(CCc2cc(OC)c(OC)c(OC)c2)cc1O
Activity (L02): Non-Toxic | Activity (HCCLM3 [1]): Active | Activity (HCCLM3 [2]): Active | Activity (SK-HEP1 [3]): Active | Activity (HepG2 [4]): Active | Activity (HCCLM3 [5]): Active | Activity (HCCLM3 [6]): Active | Activity [7]: Non-Toxic | Activity (HCCLM3 [8]): Active | Activity (HepG2 [9]): inactive | Activity (HepG2 [10]): Active | Activity (HepG2 [11]): Active | Activity (HepG2 [12]): Tde | Activity (HCCLM3 [13]): Active | inhibition (HepG2 [14]): inactive | Activity [15]: Non-Toxic | inhibition (HCCLM3 [16]): Active | Activity (HCCLM3 [17]): Active | Activity (HCCLM3 [18]): Active | Activity (HepG2 [19]): 0.32 g | Activity (HCCLM3 [20]): Active | Activity [21]: 0.695 g | Activity (HCCLM3 [22]): Active | IC50 (HepG2 [23]): 0.0993 µM | Activity (HCCLM3 [24]): Active | Activity (HepG2 [25]): Active | inhibition (HepG2 [26]): Active | Activity [27]: Non-Toxic | Activity [28]: 1.1883 g | Activity (HepG2 [29]): Tde | Activity (Homo sapiens): Active | inhibition (SK-HEP1 [30]): inactive | Activity (HCCLM3 [31]): inactive | IC50 [32]: 0.00718 µM | Activity (HepG2 [33]): inactive | inhibition (SK-HEP1 [34]): inactive
